Test results as given in patent US9605013B2, “Derivatives of hemin with antibacterial and antiviral activity” (OBSCHESTVO S OGRANICHENNOI OTVETSTVENNOSTIYU …, priority 2011, dated 2017).
Marks after values point to notes of the source that are not given here.

Experiments:
[1] = tested on: Bacillus subtilis BKM B-501; test: Antibacterial activity, serial dilutions in liquid MH medium; type: cell-based; settings: for MIC: MH medium, 20 h, 37° C., 100% growth inhibition; for MBC: no colonies on agarized MH medium
Description: (§1) The antibacterial activity of the compounds was determined against strains of gram-positive bacteria such as Staphylococcus aureus 209P, Enterococcus faecalis BKM B-871, Micrococcus luteus BKM Ac-2230, Bacillus subtilis BKM B-501, and gram-negative bacteria such as Pseudomonas aeruginosa PAO1 and Escherichia coli KM MGU C-600. BKM strains were acquired from the All-Russia Collection of Microorganisms at the Institute for Biochemistry and Physiology of Microorganisms, Russian Academy of Sciences. Strain Staphylococcus aureus 209P was acquired from the Collection of Microorganisms at the Department of microbiology of the Faculty of Biology of Lomonosov Moscow State University, and Pseudomonas aeruginosa PAO1 was acquired from the Collection of Microorganisms at the Institute of Bioorganic Chemistry of the Russian Academy of Sciences.
(§2) The main parameters characterizing the antibacterial activity are the minimal inhibitory concentration (MIC) and minimal bactericidal concentration (MBC). […] MBC is the least concentration that causes the death of all cells.
(§3) MIC was quantified by inhibiting culture growth in a liquid medium with serial dilutions of compounds using a modified procedure [Amsterdam, D., 1966. “Susceptibility testing of antimicrobials in liquid media,” pp. 52-111. In Loman, V., ed. Antibiotics in laboratory medicine, 4th ed. Williams and Wilkins, Baltimore].
(§4) Bacteria were cultured and tested on an MH liquid medium (Mueller-Hinton medium: a dry extract of beef broth, 4 g/L; starch, 1.5 g/L; casein hydrolyzate, 17.5 g/L; Sigma-Fluka Catalog No. 70192) at 37° C., 100% humidity, and under stirring. Cultures (within 4 to 7 passages after thawing) in the exponential growth phase were used for tests.
(§5) All tested compounds absorb light at 595 nm, a wavelength used for evaluating bacterial culture growth. Therefore, a correction for absorption was applied in estimating the optical density of bacterial suspensions for each compound with account for its concentration in the well. Bacterial growth inhibition (GI) as percentage after 20 hours of incubating cells with compounds was derived from the optical density (A) measured in every well at a wavelength of 595 nm using the equation: GIi=[(Act−Ac0)−(Ait−Ai0)]×100/(Act−Ac0), (1) wherein the subscripts have the following meanings: i denotes the well number, c denotes a control well with bacteria whereto the tested compound is not inserted, 0 refers to the measurement taken immediately once the tested compound was inserted to the well, and t refers to the measurement taken 20 hours after the compound was inserted.
(§6) The protocol for the determination of experimental antibacterial activity of the tested compounds was as follows. A cryovial with the test strain culture in a medium with 7% DMSO stored in liquid nitrogen, was rapidly defrosted, and 1.5 mL of the fresh MH medium was inoculated with 100 μL of the cell suspension. Cells were grown for one day at 37° C. and stirred on an orbital shaker at 150 rpm. The morphologic features of the strain and the absence of contamination with foreign bacteria were verified by: (a) inoculation on an agarized (15 g/L agar) MH medium and observation of the shape and color of the grown colonies and (b) examination of characteristic morphologic features under a microscope (Mikmed-2, LOMO, Russia) equipped with a 40× objective lens. Further, the bacteria were cultured in 1 mL of the liquid MH medium at 37° C. under stirring. The cells were reseeded every day. Cell cultures were used in tests starting with 3rd reseeding and ending with 6th one.
(§7) For testing, 5 μL of a bacterial suspension in the stationary growth phase was transferred to 1 mL of a sterile MH medium and incubated until the exponential growth phase was attained (3 to 5 h, 37° C., stirring at 150 rpm). To estimate the microorganism concentration, the optical density (A) of the resulting bacterial culture was measured at a wavelength of 595 nm. […]

[2] = tested on: Micrococcus luteus BKM Ac-2230; test: as above; type: cell-based; settings: for MIC: MH medium, 20 h, 37° C., 100% growth inhibition; for MBC: no colonies on agarized MH medium
Description: as §1, §2, §3, §4, §5, §6, §7

[3] = tested on: Staphylococcus aureus 209P; test: as above; type: cell-based; settings: for MIC: MH medium, 20 h, 37° C., 100% growth inhibition; for MBC: no colonies on agarized MH medium
Description: as §1, §2, §3, §4, §5, §6, §7

[4] = tested on: Enterococcus faecalis No. 559; test: Antibacterial specific activity, twofold dilutions, visual growth evaluation; type: cell-based; settings: E. faecalis 559; 36° C., 24 hours
Description: (§8) The specific activity of compounds also was determined against bacteria strains such as Staphylococcus aureus No. 25923 ATCC (American Type Culture Collection); Staphylococcus aureus No. 100 KC; Staphylococcus epidermidis No. 533; Enterococcus faecalis No. 559; Enterococcus faecium No. 569, Staphylococcus aureus No. 5 (MRSA), Staphylococcus aureus No. 3797 (MRSA). Staphylococcus aureus was cultured on the Trypticase Soy Agar (BBL) commercially available dry medium. Enterococcus faecalis was cultured on the Columbia Agar (BBL) commercially available dry medium. These media were sterilized by autoclaving at 121° C. for 15 min. Bacterial inoculum was constant and was 5×10^5 CFU/ml (10^5 CFU/0.2 ml). For water-soluble compounds, wells from 2nd through 8th were added with the solvent (water) in an amount of 15 μL per well, then the 1st well was added with 30 μL of the stock solution of the tested compound in […] with a concentration of […], and the concentration was adjusted to 0.007×10^3 M by serial twofold dilutions. A 10-μL portion was taken from every well, and 190 μL of the bacterial culture (10^5 CFU) was added per well. For DMSO-soluble compounds, wells from 2nd through 8th were added with the solvent (DMSO) in an amount of 10 μL per well, then the 1st well was added with 20 μL of the stock solution of the tested compound in […] with a concentration of […], and the concentration was adjusted to 0.039×10^3 M by serial twofold dilutions. A 2-μL portion was taken from each well, and 198 μL of the bacterial culture (10^5 CFU) was added per well.
(§9) The control comprised wells free of tested compounds (culture growth control). In addition, purity control of nutritional media and solvents was used. Plates were incubated in a thermostat at 36° C. for 24 hours.
(§10) Culture growth was evaluated visually by comparison of how microorganisms grew in the presence of tested compounds and in the absence of them. MIC was set equal to the last dilution of a tested agent which suppressed bacterial culture growth.

Escherichia coli 4300 = test: as above; type: cell-based; settings: E. coli 4300; 36° C., 24 hours
Description: [Worded in the source for another organism; this organism is reported under the same test.] as §8, §9, §10

[5] = tested on: Staphylococcus aureus No. 100 KC; test: as above; type: cell-based; settings: S. aureus 100 KC; 36° C., 24 hours
Description: as §8, §9, §10

[6] = tested on: Staphylococcus aureus No. 25923 ATCC; test: as above; type: cell-based; settings: S. aureus 25923; 36° C., 24 hours
Description: as §8, §9, §10

[7] = tested on: Staphylococcus aureus No. 3797 (MRSA); test: as above; type: cell-based; settings: St. aur No. 3797 MRSA; 36° C., 24 hours
Description: as §8, §9, §10

[8] = tested on: Staphylococcus aureus No. 5 (MRSA); test: as above; type: cell-based; settings: St. aur No. 5 MRSA; 36° C., 24 hours
Description: as §8, §9, §10

[9] = tested on: Staphylococcus epidermidis No. 533; test: as above; type: cell-based; settings: S. epidermis 533; 36° C., 24 hours
Description: as §8, §9, §10

[10] = tested on: Vancomycin-resistant Enterococcus faecium 569; test: as above; type: cell-based; settings: Vancomycin-resistant E. faecium 569; 36° C., 24 hours
Description: as §8, §9, §10

[11] = tested on: Enterococcus faecalis BKM B-871; test: Antibacterial activity, serial dilutions in liquid MH medium; type: cell-based; settings: for MIC: MH medium, 20 h, 37° C., 100% growth inhibition; for MBC: no colonies on agarized MH medium
Description: as §1, §2, §3, §4, §5, §6, §7

| Molecule | MIC [1] [µM] | MBC [1] | MIC [2] [µM] | MBC [2] [µM] | MIC [3] [µM] | MIC [4] [µM] | MIC (Escherichia coli 4300) [µM] | MIC [5] [µM] | MIC [6] [µM] | MIC [7] [µM] | MIC [8] [µM] | MIC [9] [µM] | MIC [10] [µM] | water solubility (Water solubility) | MIC [11] [µM] | MBC [11] | MBC [3] |
| --- | --- | --- | --- | --- | --- | --- | --- | --- | --- | --- | --- | --- | --- | --- | --- | --- | --- |
| 6,7-bis-(N^α-Glycyl]-Protohemin (IX) [VII] | 25 | 25 µM | 12.5 | 25 | 50 | >50.0 | >50.0 | 12.5 | 2.6 | 6.25 | 6.25 | 6.25 | >50.0 | – | – | – | – |
| 6,7-bis-[(Methyl Ester N^α-L-Seryl)-L-Arginyl]-Protohemin (IX) [XIX] | – | – | – | – | – | 1.3 | >50.0 | 0.78 | 0.65 | 1.3 | 1.56 | 1.3 | 6.25 | – | – | – | – |
| 6,7-bis-[(N^α-L-Arginyl)-L-Seryl]-Protohemin (IX) [XXIV] | – | – | – | – | – | >50.0 | >50.0 | 5.20 | >50.0 | 25 | 25 | 2.60 | 6.25 | – | – | – | – |
| 6,7-bis-[(N^α-L-Seryl)-L-Arginyl]-Protohemin (IX) [XXII] | – | – | – | – | – | >50.0 | >50.0 | 0.39 | 1.3 | 20.8 | 25 | 1.3 | 5.2 | – | – | – | – |
| C=CC1=C(C)c2cc3[n-]c(cc4[n-]c(cc5nc(cc1n2)C(C)=C5C=C)c(C)c4CCC(=O)N[C@@H](CCC(=O)NCCO)C(=O)NCCO)c(CCC(=O)N[C@@H](CCC(=O)NCCO)C(=O)NCCO)c3C.[Cl-].[Fe+3] [XI, 6,7-bis-[(Di-2-hydroxyethylamide)-L-glutamyl]-Protohemin (IX)] | – | – | – | – | – | 33.3 | >50.0 | >50.0 | 0.39 | 12.5 | 12.5 | 6.25 | >50.0 | water-insoluble | – | – | – |
| C=CC1=C(C)C2=Cc3c(C=C)c(C)c4[n]3[Fe]([Cl])[n]3c(c(C)c(CCC(=O)N[C@@H](CCCNC(=N)N)C(=O)OC)c3=CC3=NC(=C4)C(C)=C3CCC(=O)N[C@@H](CCCNC(=N)N)C(=O)OC)=CC1=N2 [XV, reference compound] | 3.1 | 3.1 µM | 1.6 | 3.2 | 50 | 25 | >50 | 50 | 25 | – | – | 25 | >50 | – | 50 | 400 µM | 200 µM |
| C=CC1=C(C)C2=Cc3c(C=C)c(C)c4[n]3[Fe]([Cl])[n]3c(c(C)c(CCC(=O)N[C@@H](CCC(=O)N[C@@H](CCCNC(=N)N)C(=O)OC)C(=O)N[C@@H](CCCNC(=N)N)C(=O)OC)c3=CC3=NC(=C4)C(C)=C3CCC(=O)N[C@@H](CCC(=O)N[C@@H](CCCNC(=N)N)C(=O)OC)C(=O)N[C@@H](CCCNC(=N)N)C(=O)OC)=CC1=N2 [XVI, reference compound] | 1.6 | >200** μM | 3.1 | 12.5 | 6.3 | – | – | – | – | – | – | – | – | – | 12.5 | >200** μM | >200** μM |
| C=CC1=C(C)C2=Cc3c(C=C)c(C)c4[n]3[Fe]([Cl])[n]3c(c(C)c(CCC(=O)NCC(=O)OC)c3=CC3=NC(=C4)C(C)=C3CCC(=O)NCC(=O)OC)=CC1=N2 [XVII, reference compound] | 12.5 | 25 µM | 1.6 | 6.5 | 50 | 25 | >50 | >50 | 25 | – | – | 25 | >50 | – | 100 | >200** μM | 50 µM |
| C=CC1=C(C)C2=Cc3c(C=C)c(C)c4[n]3[Fe]([Cl])[n]3c(c(C)c(CCC(=O)N[C@@H](CO)C(=O)OC)c3=CC3=NC(=C4)C(C)=C3CCC(=O)N[C@@H](CO)C(=O)OC)=CC1=N2 [XVIII, reference compound] | 6.3 | 9 µM | 6.3 | 12.5 | 25 | – | – | – | – | – | – | – | – | – | 12.5 | 25 µM | 200 µM |
